Reference: article PMC6385358, “Discovery of ((1,2,4-oxadiazol-5-yl)pyrrolidin-3-yl)ureidyl derivatives as selective non-steroidal agonists of the G-protein coupled bile acid receptor-1” (Scientific Reports, 2019)

Assays:
[1] = Liver microsomal stability; type: in vitro ADME, mouse; conditions: liver microsomes; for CIint / half-life at 1 μM: 1 μM compound; for CIint: 0.3 mg protein/mL; for half-life at 1 μM: male, CD-1, mouse, pH 7.4, read-out: t½
Procedure: (§1) Chromatography was performed using a HPLC–MS system Q-ToF Premiere instrument (Waters, Co.) equipped with an ESI source and Waters pump systems. The mixture was separated on a Luna 5 µm C8(2) 100 °A 150 × 2 mm from Phenomenex. The mobile phase consisted of 0.2% formic acid (FA) in water as solvent A and 0.2% FA in acetonitrile as solvent B at a flow rate of 200 μL/min. The gradient was as follows: 0–2 min (75% A and 25% B), 2–20 min (5% A and 95% B), 20–30 min (75% A and 25% B). The detection of analytes was achieved by ESI in the positive mode with the appropriate MRM transition or by UV system at 220 nm.
Male mouse (CD-1) liver microsomes (Sigma-Aldrich) were used. All incubations were performed in duplicate in a shaking water bath at 37 °C. The incubation mixtures contained 1 μM compound with 1% DMSO used as a vehicle, mouse liver microsomes (0.3 mg of microsomal protein per mL), 5 mM MgCl2, 1 mM NADP, 5 mM glucose 6-phosphate, 0.4 U·mL^-^1 glucose 6-phosphate dehydrogenase, and 50 mM potassium phosphate buffer (pH 7.4) in a final volume of 0.5 mL. Aliquots were removed at 0, 5, 10, 20, 30, and 40 min after microsome addition and the reaction was stopped by adding 200 μL of ice-cold acetonitrile. After 2 h, the samples were centrifuged for 10 min at 10000 rpm, and the supernatants were transferred in matrix tubes for LC-MS/MS analysis. Propranolol, known as a high hepatic clearance drug in rodents, was used as a quality-control compound for the microsomal incubations. The slope of the linear regression of the curve obtained reporting the natural logarithm of compound area versus incubation time (−k) was used in the conversion to in vitro t1/2 values by t1/2 = […]. In vitro intrinsic clearance (Clint expressed as μL/min/mg) was calculated according to the following formula: Clint = volume of reaction (μL)/t1/2 (min)/protein of liver microsomes (mg).

PPARγ = biological target: T1, PPARγ (Homo sapiens, UniProt P37231); assay: Luciferase reporter specificity assay versus PPARγ on HepG2 cells; type: cell-based; conditions: 10 μM
T1 construct: host or cells: HepG2
T1 sequence (P37231 1-505): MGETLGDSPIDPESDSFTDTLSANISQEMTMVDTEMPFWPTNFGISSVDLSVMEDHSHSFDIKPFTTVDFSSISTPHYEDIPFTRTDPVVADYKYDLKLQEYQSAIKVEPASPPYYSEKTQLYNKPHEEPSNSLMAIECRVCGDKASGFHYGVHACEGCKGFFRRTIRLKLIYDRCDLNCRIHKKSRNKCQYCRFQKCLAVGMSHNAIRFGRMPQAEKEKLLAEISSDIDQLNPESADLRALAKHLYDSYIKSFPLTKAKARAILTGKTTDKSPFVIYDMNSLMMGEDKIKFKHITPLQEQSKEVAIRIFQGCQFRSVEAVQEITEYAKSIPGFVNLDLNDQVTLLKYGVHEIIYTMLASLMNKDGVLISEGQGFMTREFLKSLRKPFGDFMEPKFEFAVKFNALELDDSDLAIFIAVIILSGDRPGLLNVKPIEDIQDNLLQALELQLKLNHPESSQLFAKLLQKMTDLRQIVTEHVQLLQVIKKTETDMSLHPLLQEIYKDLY
Procedure: (§2) The activity of compounds 1–14 on GPBAR1 was evaluated in a luciferase reporter assay using HEK-293T cells transfected with GPBAR1. The efficacy of tested compounds (Table 1) was measured using taurolithocholic acid (TLCA) as GPBAR1 reference compound[10],[11]. Each compound was tested at the concentration of 10 μM and transactivation activity of TLCA on a cAMP responsive element (CRE) (i.e. TGR5/GPBAR1) was considered equal to 100%. […] Thus, 9 and 10 (Table 1) turned out to be the most promising derivatives considering their low EC50 values and high activity efficacy. To further characterize the pharmacological properties of these compounds, we expanded their in vitro profile to common off-targets for bile acid receptor ligands.
(§3) Figure 3 (A) Dose response curves of compounds 9 and 10 (concentrations ranging from 1 to 50 µM) in luciferase reporter assay. (B) Real-time PCR analysis of mRNA expression of Pro-glucagon in GLUTag cells treated with compounds 9 and 10 at 10 μM, and TLCA used as a positive control (10 μM). Values are normalized to GAPDH and are expressed relative to those of not treated cells (NT) which are arbitrarily settled to 1. The relative mRNA expression is expressed as 2^(−ΔΔCt). […]
(§4) The specificity of compounds 9 and 10 versus PPARα, PPARγ, LXRα, LXRβ, FXR and PXR was determined in luciferase reporter gene assays as previously reported[29],[31].

[2] = LogD measurement (octanol/PBS pH 7.4); type: physicochemical; conditions: octanol/PBS (1/1)
Procedure: as §1
Ten μL of a 10 mM solution in DMSO of the compound was diluted in 490 μL of a 1/1 octanol/PBS mixture at pH 7.4. The mixture was gently shaken for 2 h at room temperature. Ten microliters of each phase was diluted in 490 μL of MeOH and analyzed by LC-MS/MS. Each compound was tested in triplicate. Log D was determined as the logarithm of the ratio of concentration of product in octanol and PBS, determined by mass signals.

PXR = biological target: T2, PXR (Homo sapiens, UniProt O75469); assay: Luciferase reporter specificity assay versus PXR on HepG2 cells; type: cell-based; conditions: 10 μM
T2 construct: host or cells: HepG2
T2 sequence (O75469 1-434): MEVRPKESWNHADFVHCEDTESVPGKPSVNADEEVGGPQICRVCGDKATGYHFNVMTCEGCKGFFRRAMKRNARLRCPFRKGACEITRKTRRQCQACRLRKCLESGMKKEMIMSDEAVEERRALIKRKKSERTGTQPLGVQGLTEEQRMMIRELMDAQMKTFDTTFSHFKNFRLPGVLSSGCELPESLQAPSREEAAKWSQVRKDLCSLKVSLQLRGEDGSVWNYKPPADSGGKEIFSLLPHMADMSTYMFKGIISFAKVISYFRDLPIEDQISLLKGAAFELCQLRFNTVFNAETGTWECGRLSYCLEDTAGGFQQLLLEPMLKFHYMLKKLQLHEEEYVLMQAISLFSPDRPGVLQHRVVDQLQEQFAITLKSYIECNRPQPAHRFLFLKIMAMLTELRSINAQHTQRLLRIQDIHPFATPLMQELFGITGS
Procedure: as §2, §3, §4

SMILES	CIint [1]	Compound remaining 40 min after treatment [1]	half-life at 1 μM [1]	PPARγ transactivation (PPARγ)	logD at 2 h [2]	PXR transactivation (PXR)
O=C(Nc1ccc(Cl)cc1)N[C@@H]1CN[C@H](c2nc(-c3ccccc3)no2)C1 [Compound 9]	67 μL/min/mg protein	42%	35 min	unable to induce	1.47	unable to induce
O=C(NC1CCCCC1)N[C@@H]1CN[C@H](c2nc(-c3ccccc3)no2)C1 [Compound 10]	76 μL/min/mg protein	40%	30 min	unable to induce	1.25	unable to induce
